Experimental findings from patent EP2067481A1, “Therapeutic use of desacyl ghrelin” (Charité - Universitätsmedizin Berlin, priority 2007, dated 2009) are described below.

This experiment is described as follows: Study underlying Fig. 6: cumulative food intake after ip ghrelin and desacyl ghrelin, alone or simultaneously, freely fed rats, light phase. It is filed as in vivo, SD rats. Particulars: ghrelin 13 µg/kg ip plus vehicle. Here is the method:
Male adult SD rats (Harlan-Winkelmann Co., Borchen, Germany) weighting 250 g were housed in groups of 4 rats/cage under conditions of controlled illumination (12:12 h light/dark cycle, lights on/off: 6:30 a.m./6:30 p.m.), humidity, and temperature (22 ± 2°C). Animals were fed with a standard rat diet (Altromin®, Lage, Germany) and tap water ad libitum. All animals were trained daily to be accustomed to the experimental conditions for 14 days before starting the experiments. During the handling phase, the back position was practiced to make animals familiar with receiving an ip injection.
Rat desacyl ghrelin (0.5 mg/ml; Peptides International, Louisville, USA) or rat ghrelin (1 mg/ml) was dissolved in distilled water and stored at -20°C. Immediately before starting the experiments, peptides were diluted in vehicle solution consisting of sterile 0.15 M NaCl (Braun, Melsungen, Germany) to reach the final concentration of 13 µg (∼4 nmol) ghrelin/kg, and 64 µg (∼20 nmol) or 127 µg (∼40 nmol) desacyl ghrelin/kg body weight. Peptide solutions were kept on ice for the duration of the experiments. […]
On the day of the experiment, freely fed animals were injected ip simultaneously (final volume: 0.5 ml) with vehicle plus vehicle (0.15 M NaCl + 0.15 M NaCl, n=13), ghrelin plus vehicle (13 µg/kg + 0.15 M NaCl, n=13), ghrelin (13 µg/kg) plus 64 µg/kg or 127 µg/kg desacyl ghrelin (n =13 in both groups), or vehicle plus 64 µg/kg desacyl ghrelin (n=13) and returned to single housing cages immediately after the injection. […] Food intake was determined by measuring the difference between the preweighed standard chow and the weight of chow at the end of the first 30 min, 1 h and 2 h food exposure.
The cumulative food intake monitored at the end of the first 30 min, 1 h, and 2 h after peptide or vehicle injection was expressed as food intake (g)/body weight (kg) (Ruter et al. 2003). Data were expressed as mean ± SEM and analyzed by Kruskal-Wallis One Way ANOVA. Differences between groups were evaluated by the Student-Newman-Keuls method; p < 0.05 was considered significant.

For the substance n-octanoyl-ghrelin, the cumulative food intake (2h, vehicle plus vehicle 2.65 ± 0.93) is listed as 7.71 ± 0.97 g/kg body weight and the cumulative food intake (one hour, vehicle plus vehicle 1.49 ± 0.72) was determined as 7.29 ± 0.92 g/kg. The food intake (first half hour, vehicle plus vehicle 1.49 ± 0.72) is recorded as 5.76 ± 0.68 g/kg body weight.
